Laboratory results taken from patent US20210403864A1, “METHODS AND COMPOSITIONS FOR TREATING ACTIVATED G-ALPHA Q MUTANT CANCERS OR MELANOCYTIC MALIGNANCIES” (Memorial Sloan Kettering Cancer Center, priority 2018, published 2021).
Where a chain is given by its changes, count along the chain named.

Assays:
GNAQ^R183Q [1] = biological target: T1, GNAQ^R183Q (Homo sapiens, UniProt P50148, R183Q); assay: IP1 accumulation assay in transiently transfected HEK293T cells; assay type: cell-based; details: 24-hour treatment
T1 construct: host or cells: melan-a (immortalized mouse melanocytes), retroviral transduction with MSCV-Puro
T1 sequence (P50148 1-359 R183Q): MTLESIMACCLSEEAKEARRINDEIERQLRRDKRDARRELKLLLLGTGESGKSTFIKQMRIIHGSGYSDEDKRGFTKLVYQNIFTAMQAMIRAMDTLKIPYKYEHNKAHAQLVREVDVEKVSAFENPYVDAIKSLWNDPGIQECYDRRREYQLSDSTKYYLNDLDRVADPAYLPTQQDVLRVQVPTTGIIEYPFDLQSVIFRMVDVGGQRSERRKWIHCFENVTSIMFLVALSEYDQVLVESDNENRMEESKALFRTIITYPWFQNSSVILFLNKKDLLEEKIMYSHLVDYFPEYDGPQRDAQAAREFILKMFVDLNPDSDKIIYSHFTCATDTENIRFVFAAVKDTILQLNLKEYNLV
Procedure: (§1) Cells were treated with YM at increasing doses for 24 hours. Error bars, s.e.m. from three biological replicates, each with three technical replicates.
(§2) Exogenous Gene Expression. HEK293T cells were transiently transfected to express vectors containing synthetic CYSLTR2 (Moore A R, et al., Nat Genet. 48(6):675 (2016)) and GNAQ. Genewiz was used to codon optimize these sequences for expression in mammalian cells. The human GNAQ α-subunit plasmids encoding for GNAQ mutants Q209L, R183Q and G48V were generated by Quick Change (Agilent Technologies, Santa Clara, Calif.) site-directed mutagenesis. HEK293T cells were transiently transfected with the plasmids encoding for GNAQ WT and mutants subcloned into pcDNA3.1(+) using Lipofectamine according to the manufacturer's instructions. Briefly, 9,000 HEK293T cells were transfected in low-volume 384-well plates with 11 ng of total DNA/well for 24 hours. Human cDNAs for WT CYSLTR2 and GNAQ were obtained from Origene and cloned into MSCV-Puro (Addgene plasmid #68469) for stable expression in melan-a cells via retroviral transduction with X-tremeGENE 9 (Sigma-Aldrich, St. Louis Mo.). Quikchange primers were used to introduce the various mutant constructs. All constructs were confirmed by sequencing. The primers used in the experiments described herein are provided below: […]
(§3) IP1 Accumulation Assay. IP1 concentrations in GNAQ-transfected HEK293T cells, GNAQ-expressing melan-a cells and uveal melanoma cells was measured using a competitive homogenous time resolved fluorescence (HTRF) assay (CisBio, Bedford, Mass.). Briefly, 9,000 transiently transfected-HEK293T cells, 5,000 melan-a cells and 5,000 uveal melanoma cells were seeded in low-volume 384-well plates in 7 μL media for 24 hours prior YM-254890 treatment. Cells were then treated with various concentrations of YM-254890 diluted in the appropriate media at 37° C. for 3 hours or 24 hours. […] Following incubation, cells were lysed by adding 3 μL/well of d2-labeled IP1 analogue as the fluorescence acceptor and the Terbium cryptate-labeled anti-IP1 mAb as the fluorescence donor, diluted in the kit-supplied lysis buffer. The plates were incubated overnight at RT and time-resolved fluorescence signals were read using the BioTek Synergy NEO plate reader (BioTek Instruments, Winooski, Vt.) at 620 nm and […]. Results were calculated as a 665 nm/620 nm signal ratio, and IP1 concentrations were interpolated from a standard curve prepared using the supplied IP1 calibrator. […] Dose-response curves and bar graphs were analyzed using GraphPad Prism 7.0 software. […]

GNAQ^Q209L = biological target: T2, GNAQ^Q209L (Homo sapiens, UniProt P50148, Q209L); assay: as above; assay type: cell-based; details: 24-hour treatment
T2 construct: host or cells: melan-a (immortalized mouse melanocytes), retroviral transduction with MSCV-Puro
T2 sequence (P50148 1-359 Q209L): T1 sequence (P50148 1-359 R183Q) with Q183R, Q209L
Procedure: as §1, §2, §3

GNAQ^R183Q [2] = biological target: T1, GNAQ^R183Q; assay: IP1 accumulation assay in mutation dependent melan-a cells; assay type: cell-based, mouse
Procedure: Cells were treated with increasing concentrations of YM-254890 (YM) for 3 hours (top) and 24 hours (bottom). Error bars, s.e.m. from three biological replicates, each with three technical replicates.
Cell Culture and in vitro analysis. Mutation dependent melan-a cells were generated by transducing cells with cDNAs in MSCV-PURO (retrovirus) and then selecting cells with puromycin (1 μg/ml) for two days. TPA (Sigma-Aldrich, St. Louis, Mo.) was then withdrawn from cultures. Cells with activating mutations (CYSLTR2^L129Q, GNAQ^G48V/R183Q/Q209L, KRAS^G12V, and BRAF^V600E) continued to proliferate over several passages (>2 weeks) and were then validated with qRT-PCR and immunoblots. Vector and WT controls were unable to maintain proliferation after a couple passages upon TPA withdrawal. All cells were cultured in media containing 10% FBS, L-glutamine ([…]), penicillin (100 U/ml), streptomycin (100 μg/ml). Melan-a cells provided by D. Bennett, St. George's Hospital, University of London (Johnson C P, et al., PLoS One. 12(6):1-17 (2017)), were cultured in RPMI supplemented with 200 nM TPA unless otherwise noted. HEK293T (from ATCC, Manassas, Va.) cells were cultured in DMEM-Q and UVM cells were cultured in RPMI. All cells tested negative for mycoplasma. Cell growth assays and YM dose response curves were assayed using CellTiter-glo 2.0 (Promega, Madison, Wis.) at given time points or after five days of incubation with YM and readout on a Glomax Luminometer (Promega, Madison, Wis.). IC50 values were calculated using Prism 7.0 software. Growth assays were compared to day 1 readings and dose response curves were compared to vehicle. Data shown is representative of at least three independent experiments with at least three technical replicates. Dose-response curves and growth assays were analyzed using GraphPad Prism 7.0 software.
IP1 Accumulation Assay. IP1 concentrations in GNAQ-transfected HEK293T cells, GNAQ-expressing melan-a cells and uveal melanoma cells was measured using a competitive homogenous time resolved fluorescence (HTRF) assay (CisBio, Bedford, Mass.). Briefly, 9,000 transiently transfected-HEK293T cells, 5,000 melan-a cells and 5,000 uveal melanoma cells were seeded in low-volume 384-well plates in 7 μL media for 24 hours prior YM-254890 treatment. Cells were then treated with various concentrations of YM-254890 diluted in the appropriate media at 37° C. for 3 hours or 24 hours. 1 h prior lysis, cells were supplemented with 1× Stimulation Buffer provided by the manufacturer (HEPES 10 mM, CaCl2) 1 mM, MgCl2 0.5 mM, KCl 4.2 mM, NaCl 146 mM, glucose 5.5 mM, LiCl 50 mM, pH 7.4) with 0.2% BSA and 50 mM of LiCl (to prevent IP1 degradation). Following incubation, cells were lysed by adding 3 μL/well of d2-labeled IP1 analogue as the fluorescence acceptor and the Terbium cryptate-labeled anti-IP1 mAb as the fluorescence donor, diluted in the kit-supplied lysis buffer. The plates were incubated overnight at RT and time-resolved fluorescence signals were read using the BioTek Synergy NEO plate reader (BioTek Instruments, Winooski, Vt.) at 620 nm and […]. Results were calculated as a 665 nm/620 nm signal ratio, and IP1 concentrations were interpolated from a standard curve prepared using the supplied IP1 calibrator. Results are shown as IP1 (nM). Dose-response curves and bar graphs were analyzed using GraphPad Prism 7.0 software.

Substance: YM-254890
- fold less sensitive to YM compared to CYSLTR2^L129Q and GNAQ^G48V (IP1 accumulation) (GNAQ^R183Q [1]): ~20 fold
- inhibition of signaling (IP1 accumulation) (GNAQ^Q209L): incompletely/poorly inhibited
- relative sensitivity to YM (IP1 accumulation) (GNAQ^Q209L): most resistant
- fold less sensitive than CYSLTR2^L129Q and GNAQ^G48V mutants (IP1 accumulation) (GNAQ^R183Q [2]; 24-hour treatment): approximately 10 fold
- inhibition of IP1 accumulation (GNAQ^R183Q [2]; 24-hour treatment): completely inhibited
- sensitivity of IP1 accumulation after 3 hours versus 24 hours (GNAQ^R183Q [2]; 3 hours of treatment): less sensitive
